Reference: patent publication US9238666B2, “Phosphoramidic acid prodrugs of 5-[5-phenyl-4-(pyridin-2-ylmethylamino)quinazolin-2-yl] pyridine-3-sulfonamide” (BRISTOL-MYERS SQUIBB COMPANY, priority 2012, dated 2016)
In brackets after ≈: the same amount, converted by molar mass. Read-outs that look alike come from different tables or passages of the source.

Key:
[1] = Solubility at different pH conditions (equilibrium, 24 h, HPLC); format: physicochemical
Method: Protocol for Solubility Studies of the Compounds of Instant Disclosure The solubility of the compounds of the present invention have been evaluated at various pH levels. The solubility was tested using the procedure described below. Excess amount of powder compound was equilibrated with 1 mL of buffer in a 2 mL glass vial and the dispersion of the compound in buffer ensured by vortexing, followed by sonication. The vials were shaken at 300 rpm at room temperature for 24 h. After 24 h incubation, the slurry was filtered and the filtrate analyzed by HPLC for the quantification of the solubilized fraction of compound using a four point calibration curve. Note: The incubation time was decided based on the aqueous stability data. If the compound was stable in the buffer up to 24 hrs, then the solubility was measured after 24 hrs, otherwise kinetic solubility data is reported. The solubility data at different pH conditions at 24 h (mg/mL) is provided in below Table 1.

[2] = target: Kv1.5 channel of voltage-gated K+ channels (Homo sapiens, UniProt P22460); assay: Kv1.5 channel inhibition; format: cell-based
Source text: Assays to determine the degree of activity of a compound as an IKur inhibitor are well known in the art and are described in references such as J. Gen. Physiol., 101(4):513-543 (April 1993), and Br. J. Pharmacol., 115(2):267-274 (May 1995).
By displaying activity as inhibitors of the Kv1.5 channel of voltage-gated K+ channels, compounds of the present disclosure are expected to be useful in the treatment of human diseases associated with the Kv1.5 channel.

[3] = buffer, pH 1, aqueous buffer, thermodynamic from solid, pH 1, room temperature, read-out: Solubility at 24 h
[4] = buffer, pH 2, aqueous buffer, thermodynamic from solid, pH 2, room temperature, read-out: Solubility at 24 h
[5] = buffer, pH 3, aqueous buffer, thermodynamic from solid, pH 3, room temperature, read-out: Solubility at 24 h
[6] = buffer, pH 5, aqueous buffer, thermodynamic from solid, pH 5, room temperature, read-out: Solubility at 24 h
[7] = buffer, pH 6.5, aqueous buffer, thermodynamic from solid, pH 6.5, room temperature, read-out: Solubility at 24 h
[8] = buffer, pH 7.4, aqueous buffer, thermodynamic from solid, pH 7.4, room temperature, read-out: Solubility at 24 h

Kv1.5 channel of voltage-gated K+ channels, sequence (P22460 whole entry): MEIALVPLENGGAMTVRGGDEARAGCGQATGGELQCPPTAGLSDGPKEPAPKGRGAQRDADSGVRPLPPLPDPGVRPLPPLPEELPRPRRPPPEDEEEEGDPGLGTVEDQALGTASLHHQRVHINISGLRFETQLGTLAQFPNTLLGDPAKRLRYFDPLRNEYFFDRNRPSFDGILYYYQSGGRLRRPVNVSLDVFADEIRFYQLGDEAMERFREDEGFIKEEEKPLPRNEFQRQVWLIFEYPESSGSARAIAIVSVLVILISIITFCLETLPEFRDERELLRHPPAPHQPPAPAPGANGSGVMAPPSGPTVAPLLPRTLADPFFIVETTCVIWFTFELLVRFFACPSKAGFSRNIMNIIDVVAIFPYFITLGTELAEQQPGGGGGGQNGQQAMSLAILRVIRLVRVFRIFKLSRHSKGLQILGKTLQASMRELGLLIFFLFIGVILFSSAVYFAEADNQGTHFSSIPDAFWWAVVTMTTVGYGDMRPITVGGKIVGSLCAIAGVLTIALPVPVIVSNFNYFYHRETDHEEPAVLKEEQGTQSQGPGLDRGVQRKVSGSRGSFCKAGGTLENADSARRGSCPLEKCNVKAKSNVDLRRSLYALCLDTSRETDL

Solubility at 24 h ([1]; pH 1, room temperature)	Solubility at 24 h ([1]; pH 2, room temperature)	Solubility at 24 h ([1]; pH 3, room temperature)	Solubility at 24 h ([1]; pH 5, room temperature)	Solubility at 24 h ([1]; pH 6.5, room temperature)	Solubility at 24 h ([1]; pH 7.4, room temperature)	IC50 [2]	Solubility at 24 h [1, 3]	Solubility at 24 h [1, 4]	Solubility at 24 h [1, 5]	Solubility at 24 h [1, 6]	Solubility at 24 h [1, 7]	Solubility at 24 h [1, 8]	SMILES
0.99 mg/mL	0.12 mg/mL	0.02 mg/mL	0.07 mg/mL	1.15 mg/mL	2.41 mg/mL								O=P(O)(O)NS(=O)(=O)c1cncc(-c2nc(NCc3ccccn3)c3c(-c4ccccc4)cccc3n2)c1 [Compound 7, Calcium (5-(5-phenyl-4-((pyridin-2-ylmethyl)amino)quinazolin-2-yl)pyridin-3-yl)sulfonylphosphoramidate]
0.75 mg/mL	0.11 mg/mL	0.02 mg/mL	0.15 mg/mL	4.62 mg/mL	7.3 mg/mL								O=P(O)(O)NS(=O)(=O)c1cncc(-c2nc(NCc3ccccn3)c3c(-c4ccccc4)cccc3n2)c1 [Compound 3, Trisodium (5-(5-phenyl-4-((pyridin-2-ylmethyl)amino)quinazolin-2-yl)pyridin-3-yl)sulfonylphosphoramidate]
0.29 mg/mL	0.09 mg/mL	0.07 mg/mL	0.25 mg/mL	0.3 mg/mL	>1.07 mg/mL								O=P(O)(O)NS(=O)(=O)c1cncc(-c2nc(NCc3ccccn3)c3c(-c4ccccc4)cccc3n2)c1 [Compound 6, Tripotassium (5-(5-phenyl-4-((pyridin-2-ylmethyl)amino)quinazolin-2-yl)pyridin-3-yl)sulfonylphosphoramidate]
0.6 mg/mL (≈ 1090 µM)	0.02 mg/mL (≈ 36.5 µM)	0.02 mg/mL (≈ 36.5 µM)	0.03 mg/mL (≈ 54.7 µM)	0.16 mg/mL (≈ 292 µM)	0.19 mg/mL (≈ 346 µM)								O=P(O)(O)NS(=O)(=O)c1cncc(-c2nc(NCc3ccccn3)c3c(-c4ccccc4)cccc3n2)c1 [Compound 8, Magnesium (5-(5-phenyl-4-((pyridin-2-ylmethyl)amino)quinazolin-2-yl)pyridin-3-yl)sulfonylphosphoramidate]
0.25 mg/mL (≈ 456 µM)	0.03 mg/mL (≈ 54.7 µM)	0.01 mg/mL (≈ 18.2 µM)	0.002 mg/mL (≈ 3.65 µM)	0.11 mg/mL (≈ 201 µM)	0.56 mg/mL (≈ 1020 µM)								O=P(O)(O)NS(=O)(=O)c1cncc(-c2nc(NCc3ccccn3)c3c(-c4ccccc4)cccc3n2)c1 [Compound 2, 5-(5-Phenyl-4-(pyridin-2-ylmethylamino)quinazolin-2-yl)pyridin-3-ylsulfonylphosphoramidic acid]
1.62 mg/mL (≈ 2950 µM)	0.08 mg/mL (≈ 146 µM)	0.03 mg/mL (≈ 54.7 µM)	0.022 mg/mL (≈ 40.1 µM)	2.023 mg/mL (≈ 3690 µM)	2.514 mg/mL (≈ 4580 µM)								O=P(O)(O)NS(=O)(=O)c1cncc(-c2nc(NCc3ccccn3)c3c(-c4ccccc4)cccc3n2)c1 [Compound 5, Tris-(5-(5-phenyl-4-((pyridin-2-ylmethyl)amino)quinazolin-2-yl)pyridin-3-yl)sulfonylphosphoramidate]
						0.046 µM	6.4 mg/mL (≈ 13700 µM)	0.41 mg/mL (≈ 875 µM)	< 0.001 mg/mL	< 0.001 mg/mL	< 0.001 mg/mL	< 0.001 mg/mL	NS(=O)(=O)c1cncc(-c2nc(NCc3ccccn3)c3c(-c4ccccc4)cccc3n2)c1 [Compound 1, 5-(5-phenyl-4-((pyridin-2-ylmethyl)amino)quinazolin-2-yl)pyridine-3-sulfonamide, reference compound]
							> 1.74 mg/mL	> 4.05 mg/mL	> 2.11 mg/mL	> 5.12 mg/mL	> 4.58 mg/mL	> 1.99 mg/mL	O=P(O)(O)N(P(=O)(O)O)S(=O)(=O)c1cncc(-c2nc(NCc3ccccn3)c3c(-c4ccccc4)cccc3n2)c1 [Compound 10]
